{
  "source": "patent US20230139826A1",
  "about": "(NONO INC., priority 2020, published 2023)",
  "key": {"PDZ2 domain of PSD-95": {"biological_target": "PDZ2 domain of PSD-95 (Homo sapiens, UniProt P78352)", "sequence (P78352 160-246 limits assumed)": "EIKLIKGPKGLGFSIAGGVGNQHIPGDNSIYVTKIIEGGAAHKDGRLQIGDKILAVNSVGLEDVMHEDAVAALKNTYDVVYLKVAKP", "assay": "Direct ELISA of biotinylated peptides to PSD-95 PDZ2", "type": "binding", "conditions": "biotinylated peptides, triplicate; read-out: EC50, direct ELISA binding to PSD-95 PDZ2 domain", "method": "ELISA plates were coated with 1 ug/ml PSD95PDZ2 in 50 mM bicarbonate buffer overnight at 4 C. The plate was blocked in 2%BSA in PBST (0.05%) for 2 h at room temperature. It was then incubated with biotinylated ligand (nerinetide, D-tat-L2B9c or D-Tat-L-AA) at the indicated concentrations (FIG. 4A) and incubated overnight at 4 C. After washing with PBS-T, the plate was incubated for 30 min with (1:3000) SA-HRP, washed again, and incubated with TMB solution for 10 min. The reaction was stopped with 100 ul H2504. Absorbance was determined at 450 nm with the synergy H1 reader."}, "[1]": {"tested_on": "embolic middle cerebral artery occlusion (eMCAO)", "assay": "Rat embolic middle cerebral artery occlusion model with alteplase reperfusion", "type": "in vivo, Sprague-Dawley rats", "method": "To test this, male Sprague-Dawley rats (10-12 weeks old; 270-310 g; Charles River, Montreal, QC, Canada) were subjected to embolic middle cerebral artery occlusion (eMCAO), produced by the introduction of an autologous blood thrombus into the middle cerebral artery. Reperfusion was achieved by treatment with intravenous alteplase at a total dose of 5.4 mg/kg beginning at 90 minutes after ischemia onset. Alteplase was administered using the human injection protocol in which 10% of the total dose is given as a bolus, with the remainder 90% of the dose being given over a 60-minute infusion. […] This dose was chosen because in pilot studies, higher doses of alteplase (10× human dose) produced unacceptable mortality rates due to hemorrhagic conversions of strokes. Nerinetide was administered either 30 minutes prior to, or concurrently with, the start of the alteplase administration (FIG. 5A) at a dose of 7.6 mg/kg. […] Infarct volumes, hemispheric swelling and neurological scores were evaluated at 24 hours.\nMale Sprague-Dawley rats were subjected to eMCAO as already described. Nerinetide (7.6 mg/kg) or D-Tat-L-2B9c (7.6 mg/kg) were given as bolus injections at 60 minutes. Alteplase (5.4 mg/kg over 60 min) was also started at 60 min after eMCAO, concurrently with the active agent that inhibits PSD-95. Neurological scoring, infarct volume, and hemispheric swelling were assessed at 24 hours (FIG. 8A).\nThe studies were designed to have 80% power to detect a 40% absolute difference between control and treatment groups at p=0.05. Animal randomization, drug allocation and treatment drug preparation were performed by a research associate not directly involved with surgical or outcome assessment. Nerinetide and D-Tat-L-2B9c were freshly prepared at a concentration of 7.6 mg/mL in 500 uL aliquots. Alteplase was prepared from lyophilized drug and, like matching placebo, stored in identical glass tubes. Drugs were kept at 4° C. until 10 minutes prior to use. The surgeon and the investigators responsible for the surgery, stroke volume measurement, behavioural assessment and statistical analysis were blinded to treatment allocation."}, "[2]": {"tested_on": "transient middle cerebral artery occlusion (tMCAO)", "assay": "Rat transient middle cerebral artery occlusion model"}, "[3]": {"conditions": "30-minute dose separation between nerinetide and alteplase"}},
  "note": "Residues, ends and D or L forms follow the SMILES beside them.",
  "data": [
    {"smiles": "CC[C@H](C)[C@H](NC(=O)[C@H](CO)NC(=O)[C@H](CO)NC(=O)[C@H](CC(C)C)NC(=O)[C@H](CCCCN)NC(=O)[C@H](CCCN=C(N)N)NC(=O)[C@H](CCCN=C(N)N)NC(=O)[C@H](CCCN=C(N)N)NC(=O)[C@H](CCC(N)=O)NC(=O)[C@H](CCCN=C(N)N)NC(=O)[C@H](CCCN=C(N)N)NC(=O)[C@H](CCCCN)NC(=O)[C@H](CCCCN)NC(=O)[C@H](CCCN=C(N)N)NC(=O)CNC(=O)[C@@H](N)Cc1ccc(O)cc1)C(=O)N[C@@H](CCC(=O)O)C(=O)N[C@@H](CO)C(=O)N[C@@H](CC(=O)O)C(=O)N[C@H](C(=O)O)C(C)C", "note": "[Nerinetide] (H-YGRKKRRQRRRKLSSIESDV-OH)", "values": [
      {"measurement": "EC50", "setting": "PDZ2 domain of PSD-95", "result": 93, "unit": "nM"},
      {"measurement": "hemispheric swelling", "setting": "[1]; [3]", "result": "reducing hemispheric swelling"},
      {"measurement": "neurological scores", "setting": "[1]; [3]", "result": "improving neurological scores"},
      {"measurement": "reduction of infarction volume", "setting": "[1]; nerinetide alone 7.6 mg/kg, 60 minutes after eMCAO, 24 hours", "result": 59.2, "unit": "%"},
      {"measurement": "infarction volume", "setting": "[1]; nerinetide alone 60 minutes after eMCAO (FIG. 5B), control 427±27", "result": "175±40", "unit": "mm^3"},
      {"measurement": "infarction volume", "setting": "[1]; nerinetide alone 60 minutes after eMCAO, absence of alteplase (FIG. 8B), control 458±39", "result": "296±66", "unit": "mm^3"},
      {"measurement": "infarct volume reduction", "setting": "[1]; nerinetide at 60 minutes followed by alteplase 30 minutes later", "result": 70, "unit": "%"},
      {"measurement": "effect on infarction volume when given concurrently with alteplase", "setting": "[1]; peptide 7.6 mg/kg and alteplase 5.4 mg/kg both at 60 min after eMCAO", "result": "eliminated completely"},
      {"measurement": "neurological function 24 hours after tMCAo", "setting": "[2]; doses as low as 0.25 mg/kg", "result": "improvement"},
      {"measurement": "infarct volume 24 hours after tMCAo", "setting": "[2]; doses as low as 0.25 mg/kg, vs vehicle", "result": "significant reduction"},
      {"measurement": "efficacy in tMCAo", "setting": "[2]; doses of as little as 0.025 mg/kg", "result": "effective"},
      {"measurement": "efficacy in tMCAo", "setting": "[2]; doses up to at least 25 mg/kg", "result": "effective"},
      {"measurement": "reducing infarction volume, hemispheric swelling and improving neurological scores", "setting": "[2]; rat tMCAO, comparison of the two peptides", "result": "equally effective"},
      {"measurement": "dose with the highest efficacy", "setting": "[2]; rat tMCAo dose-response", "result": "about 15 mg/kg"},
      {"measurement": "effective dosage range (reducing infarction size and neurologic deficit)", "setting": "[2]; rat tMCAo, iv bolus 60 minutes after tMCAo, with lodoxamide", "result": "0.025-25 mg/kg"}
    ]}
  ]
}
